# Measured values: publication PMC7175153, “Testing the Pharmacokinetic Interactions of 24 Colonic Flavonoid Metabolites with Human Serum Albumin and Cytochrome P450 Enzymes” (Biomolecules, 2020)
# Like-named read-outs stand apart in the source and are kept apart here.
# Columns and labels:
# [1] = target: T1, human serum albumin (HSA) (Homo sapiens, UniProt P02768); experiment: HSA-ligand interaction by fluorescence spectroscopy (quenching, Stern-Volmer and Hyperquad fitting); type: binding; details: for Kd: decimal log ±SEM of K in L/mol, Hyperquad non-linear fitting, PBS pH 7.4; for Effect on HSA fluorescence signal at 340 nm / LogKSV (Stern-Volmer quenching constant): HSA 2 μM; for Effect on HSA fluorescence signal at 340 nm: metabolite 0-8 μM, λex 295 nm; for LogKSV (Stern-Volmer quenching constant): decimal log ±SEM of KSV in L/mol, PBS pH 7.4, λex 295 nm, λem 340 nm
# T1 construct: purchased Sigma-Aldrich
# Procedure: Albumin-ligand interactions were investigated employing a Hitachi F-4500 fluorimeter (Tokyo, Japan), measurements were performed in phosphate-buffered saline (PBS, pH 7.4), in the presence of air at room temperature. Absorption spectra of the flavonoid metabolites were also recorded in PBS, applying a HALO DB-20 UV-Vis spectrophotometer (Dynamica, London, UK). Because the inner filter effect can decrease the fluorescence emission signal of albumin, fluorescence spectra were corrected using the following equation [29, 30]:Icor = Iobs × e^(Aex^+ Aem^)/2(1) where Icor means the corrected and Iobs denotes the observed emission intensities at the wavelengths used, while Aex and Aem are the absorbance values of flavonoid metabolites at the excitation and emission wavelengths applied, respectively.
# HSA-ligand interactions were evaluated using fluorescence quenching studies or the intrinsic fluoresce of the metabolite (if it strongly interfered with the emission signal of albumin). In quenching studies, the emission spectrum of HSA (2 μM) was recorded in the presence of increasing concentrations of microbial metabolites (0, 2, 3, 4, 5, 6, and 8 μM), using a 295 nm excitation wavelength. Data were evaluated based on linear and non-linear fitting, employing the Stern-Volmer equation (Equation (2)) and the Hyperquad2006 program package (Protonic Software; Leeds, UK), respectively. The Stern-Volmer equation was described as I0/I = 1 + KSV × [Q](2) where I0 and I denote the fluorescence emission intensities (λex = 295 nm, λem = 340 nm) of HSA in the absence and presence of colonic metabolites, respectively. Furthermore, KSV (unit: L/mol) and [Q] (unit: mol/L) are the Stern-Volmer quenching constant and the concentration of the quencher, respectively.
# The fluorescence emission spectrum of 2H4MBA (2 μM) was recorded with HSA (0, 0.5, 1, 2, 3, 4 and 5 μM), using 295 nm excitation wavelength (the excitation maximum of 2H4MBA). The binding constants (K; unit: L/mol) of albumin-ligand complexes were determined by non-linear fitting using the Hyperquad2006 program, as has been reported. During this evaluation, absorbance values and fluorescence signals of both HSA and 2H4MBA were taken into account.
# [2] = target: T2, HSA Site II (naproxen) (Homo sapiens, UniProt P02768); experiment: Displacement of Site II marker naproxen from HSA by ultrafiltration; type: binding; details: naproxen 1 μM, HSA 1.5 μM, metabolite 20 μM
# T2 construct: purchased Sigma-Aldrich
# Excerpt: (§1) Then the concentrations of site markers in the filtrates were quantified by HPLC (see in 2.5).
# [3] = target: T3, CYP2C19 (Homo sapiens, UniProt P33261); experiment: CYP2C19-catalyzed S-mephenytoin hydroxylation (CypExpress 2C19 kit); type: in vitro ADME; details: CypExpress 2C19 kit (recombinant CYP2C19), probe S-mephenytoin, metabolite 20 μM, S-mephenytoin 5 μM
# T3 construct: purchased Sigma-Aldrich
# Excerpt: Effects of microbial metabolites on CYP2C19 enzyme were examined based on their impact on CYP2C19-catalyzed 4-hydroxymephenytoin formation, employing the previously reported method without modifications.
# (§2) S-mephenytoin and 4-hydroxymephenytoin (CYP2C19 assay) as well as testosterone and 6β-hydroxytestosterone (CYP3A4 assay) were quantified by HPLC-UV employing the previously described methods without modifications.
# [4] = tested on: HSA; details: cited from earlier work
# [5] = design: method as in PMID 25168218; details: rat plasma, after Decalepis arayalpathra tuber extract; cited from earlier work
# [6] = tested on: bovine serum albumin; details: cited from earlier work
# [7] = cited from earlier work
# [8] = tested on: CYP3A4; details: cited from earlier work
# [9] = tested on: CYP2C9; details: cited from earlier work
# [10] = tested on: CYP2C19; design: method as in PMID 24254844; details: cited from earlier work
# [11] = target: T4, CYP3A4 (Homo sapiens, UniProt P08684); experiment: CYP3A4-catalyzed testosterone hydroxylation (CypExpress 3A4 kit); type: in vitro ADME; details: CypExpress 3A4 kit (recombinant CYP3A4), probe testosterone, metabolite 20 μM, testosterone 5 μM, read-out: Inhibition of CYP3A4 (decrease in metabolite formation)
# T4 construct: purchased Sigma-Aldrich
# Procedure: Inhibitory action of flavonoid metabolites on CYP3A4 enzyme was tested based on their effects on CYP3A4-catalyzed testosterone hydroxylation, using the previously described method without modifications.
# as §2
# [12] = target: T5, HSA Site I (warfarin) (Homo sapiens, UniProt P02768); experiment: Displacement of Site I marker warfarin from HSA by ultrafiltration; type: binding; details: warfarin 1 μM, HSA 5 μM, metabolite 20 μM
# T5 construct: purchased Sigma-Aldrich
# Excerpt: as §1
# [13] = target: CYP2C9 (Homo sapiens, UniProt P11712); experiment: CYP2C9-catalyzed diclofenac hydroxylation (CypExpress 2C9 kit)
# Procedure: The inhibitory effects of colonic flavonoid metabolites were examined in vitro, applying CypExpress^TM Cytochrome P450 human kits.
# Inhibition of CYP2C9 enzyme was examined based on CYP2C9-catalyzed 4′-hydroxydiclofenac formation in the presence of microbial metabolites, using the previously reported method with some modifications. […] The incubations were started with the addition of the enzyme. After 120 min incubation at 700 rpm and 30 °C in a thermomixer (Eppendorf, Hamburg, Germany), the reaction was stopped with the addition of 100 μL of ice-cold methanol. After centrifugation (10 min, 14,000 g, room temperature), the concentrations of diclofenac and 4′-hydroxydiclofenac were quantified with HPLC (see in 2.5).
# The metabolite formation (% of control) was depicted vs. the concentrations of inhibitors in a decimal logarithmic scale, then IC50 values were determined employing the GraphPad Prism 8 software (San Diego, CA, USA).
# Diclofenac and 4′-hydroxydiclofenac (CYP2C9 assay) were quantified by HPLC-UV as it was reported previously. […] The separation was carried out using a guard column (Phenomenex Security Guard C8, 4.0 × 3.0 mm) linked to an analytical column (Agilent Eclipse C8, 150 × 4.6 mm, 5 μm) at room temperature. […] Diclofenac and 4′-hydroxydiclofenac were detected at 275 nm.
# [14] = read-out: LogK (binding constant of albumin-ligand complex) (converted)
# T4 sequence (P08684 whole entry): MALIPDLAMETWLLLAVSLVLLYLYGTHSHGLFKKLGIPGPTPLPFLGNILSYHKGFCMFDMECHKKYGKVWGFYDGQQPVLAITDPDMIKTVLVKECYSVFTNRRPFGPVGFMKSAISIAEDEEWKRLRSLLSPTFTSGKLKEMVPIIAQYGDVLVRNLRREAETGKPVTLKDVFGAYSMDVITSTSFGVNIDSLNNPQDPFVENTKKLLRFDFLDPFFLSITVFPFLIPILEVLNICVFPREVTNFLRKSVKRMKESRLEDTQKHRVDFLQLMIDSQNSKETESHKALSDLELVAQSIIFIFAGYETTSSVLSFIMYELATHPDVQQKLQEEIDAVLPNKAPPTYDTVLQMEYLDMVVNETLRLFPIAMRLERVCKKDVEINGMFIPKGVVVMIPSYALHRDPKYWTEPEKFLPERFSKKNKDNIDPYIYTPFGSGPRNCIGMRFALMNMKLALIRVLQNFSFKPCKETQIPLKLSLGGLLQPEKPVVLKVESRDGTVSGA
# T1 sequence (P02768 25-609): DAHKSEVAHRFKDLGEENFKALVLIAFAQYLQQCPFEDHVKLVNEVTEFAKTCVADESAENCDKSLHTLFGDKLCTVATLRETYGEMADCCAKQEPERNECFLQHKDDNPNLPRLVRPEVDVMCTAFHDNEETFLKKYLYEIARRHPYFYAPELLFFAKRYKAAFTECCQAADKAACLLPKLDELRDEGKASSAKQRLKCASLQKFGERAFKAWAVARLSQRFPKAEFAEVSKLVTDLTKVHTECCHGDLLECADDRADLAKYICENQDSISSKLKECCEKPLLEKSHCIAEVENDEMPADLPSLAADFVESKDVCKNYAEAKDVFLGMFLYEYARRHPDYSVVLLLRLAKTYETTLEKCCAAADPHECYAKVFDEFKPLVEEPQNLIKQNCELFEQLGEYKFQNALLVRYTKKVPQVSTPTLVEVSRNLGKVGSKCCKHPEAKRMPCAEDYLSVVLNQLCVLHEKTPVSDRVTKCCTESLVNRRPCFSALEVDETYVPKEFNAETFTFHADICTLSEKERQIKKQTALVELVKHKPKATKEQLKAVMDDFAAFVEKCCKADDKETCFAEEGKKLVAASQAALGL
# T3 sequence (P33261 whole entry): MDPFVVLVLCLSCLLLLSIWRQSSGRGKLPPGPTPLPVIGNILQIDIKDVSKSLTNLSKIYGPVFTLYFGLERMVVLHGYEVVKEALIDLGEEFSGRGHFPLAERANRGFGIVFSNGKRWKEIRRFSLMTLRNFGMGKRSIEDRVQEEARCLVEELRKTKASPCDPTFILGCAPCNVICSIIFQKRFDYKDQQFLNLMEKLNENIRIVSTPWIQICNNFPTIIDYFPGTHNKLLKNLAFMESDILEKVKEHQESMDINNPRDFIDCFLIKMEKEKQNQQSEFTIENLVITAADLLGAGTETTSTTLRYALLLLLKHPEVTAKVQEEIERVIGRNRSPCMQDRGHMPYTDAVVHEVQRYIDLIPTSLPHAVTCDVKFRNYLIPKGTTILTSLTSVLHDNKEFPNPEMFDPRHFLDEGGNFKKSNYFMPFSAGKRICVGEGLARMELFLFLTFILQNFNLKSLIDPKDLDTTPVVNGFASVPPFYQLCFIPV
# Chain of CYP2C9 (Homo sapiens, UniProt P11712) (P11712 whole entry): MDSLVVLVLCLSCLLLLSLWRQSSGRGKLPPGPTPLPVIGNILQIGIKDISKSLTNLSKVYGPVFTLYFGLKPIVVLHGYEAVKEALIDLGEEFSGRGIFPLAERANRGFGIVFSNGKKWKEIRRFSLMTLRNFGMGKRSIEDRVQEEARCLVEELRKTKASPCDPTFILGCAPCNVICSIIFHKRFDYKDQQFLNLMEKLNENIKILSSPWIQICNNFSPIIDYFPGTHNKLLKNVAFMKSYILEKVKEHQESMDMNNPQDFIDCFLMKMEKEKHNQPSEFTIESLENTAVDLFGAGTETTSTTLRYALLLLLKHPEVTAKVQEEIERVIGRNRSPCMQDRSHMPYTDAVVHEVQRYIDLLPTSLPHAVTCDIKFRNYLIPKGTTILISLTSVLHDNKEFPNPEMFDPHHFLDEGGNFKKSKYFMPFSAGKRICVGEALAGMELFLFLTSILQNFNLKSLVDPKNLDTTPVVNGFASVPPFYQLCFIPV
# T5 sequence (P02768 25-609): as the sequence (P02768 25-609) above
# T2 sequence (P02768 25-609): as above
smiles,measurement,setting,value
"COc1ccc(C(=O)O)c(O)c1 [2H4MBA, 2-hydroxy-4-methoxybenzoic acid]",Kd,[1]; [14],7.24 µM
same,Concentration of naproxen in the filtrate,[2],statistically significant (p < 0.05) but weak elevation
same,inhibition at 20 μM,[3],< 30%
same,logK of 2H4MBA-HSA complex,[4]; quenching study,3.2
same,Cmax,[5],7.7 µM
"O=C(O)/C=C/c1cccc(O)c1 [3CA, 3-coumaric acid]",Effect on HSA fluorescence signal at 340 nm,[1],significant decrease
same,Kd,[1]; [14],72.4 µM
same,LogKSV (Stern-Volmer quenching constant),[1],4.13 ± 0.02
same,logK of 3CA-bovine serum albumin complex,[6],4.1
same,Concentration in the circulation,[7],low nanomolar concentrations
"COc1cc(CC(=O)O)ccc1O [3M4HPAA, 3-methoxy-4-hydroxyphenylacetic acid]",logK toward bovine serum albumin,[6],3.8
O=C(O)/C=C/c1ccc(O)cc1 [4-coumaric acid],Effect on CYP3A4 enzyme,[8],did not influence
COc1cc(C(=O)O)ccc1O [4-hydroxy-3-methoxy-benzoic acid],Cmax,"[7]; healthy human volunteers, orally administered",5.7 µM
"O=C(O)c1ccc(O)cc1 [4HBA, 4-hydroxybenzoic acid]",logK of complex with HSA,[4],no interaction
same,Inhibition of CYP2C9,[9],did not inhibit
same,Inhibition of CYP2C19,[10],did not inhibit
same,Effect on CYP3A4 enzyme,[8],did not influence
"CC(=O)c1ccc(O)cc1O [24DHAP, 2,4-dihydroxyacetophenone]",Effect on HSA fluorescence signal at 340 nm,[1],significant decrease
same,Kd,[1]; [14],27.5 µM
same,LogKSV (Stern-Volmer quenching constant),[1],4.39 ± 0.06
same,inhibition at 20 μM,[11],< 30%
"O=C(O)c1ccc(O)cc1O [24DHBA, 2,4-dihydroxybenzoic acid]",logK of complex with HSA,[4],3.2
"O=C(O)c1ccc(O)c(O)c1 [34DHBA, 3,4-dihydroxybenzoic acid]",inhibition at 20 μM,[3],< 30%
same,logK of complex with HSA,[4],3.1
"O=C(O)CCc1ccc(O)cc1 [34HPPA, 3-(4-hydroxyphenyl)propionic acid]",Inhibition of CYP2C9,[9],did not inhibit
same,Inhibition of CYP2C19,[10],did not inhibit
same,Effect on CYP3A4 enzyme,[8],did not influence
"CC(C(=O)c1ccc(O)cc1O)c1ccc(O)cc1 (stereo not shown) [DESMA, 1-(2,4-dihydroxyphenyl)-2-(4-hydroxyphenyl)-1-propanone]",Effect on HSA fluorescence signal at 340 nm,[1],significant decrease
same,Kd,[1]; [14],8.32 µM
same,LogKSV (Stern-Volmer quenching constant),[1],4.99 ± 0.01
same,Concentration of warfarin in the filtrate,[12],significantly increased
same,IC50,[13],6.6 µM
same,α (IC50 of the inhibitor divided by the IC50 of the positive control),"[13]; human, 120 min, pH 7.5",5.00
same,inhibition at 20 μM,[3],< 30%
same,inhibition at 20 μM,[11],< 30%
same,Plasma concentrations,"[7]; after dietary intake or high consumption of soy products, low nanomolar upward",≤ 0.5 µM
same,Peak plasma concentration,[7]; after ingestion of 60 g baked soybean powder,300−500 nM
"O=C(O)CNC(=O)c1ccccc1 [HIPA, hippuric acid]",inhibition at 20 μM,[3],< 30%
same,logK of complex with HSA,[4],3.8
same,Inhibition of CYP2C9,[9],"inhibited only at very high concentrations (e.g., 100 μM)"
same,Inhibition of CYP3A4-catalyzed testosterone hydroxylation,[8]; 1-100 μM range,did not show relevant inhibition
same,Inhibition of CYP3A4-catalyzed testosterone hydroxylation,[8],considerable inhibition only above 50 μM concentrations
"Oc1cc(O)cc(O)c1 [PHLO, phloroglucinol]",inhibition at 20 μM,[11],~40%
same,Peak plasma concentration,"[7]; healthy human volunteers, oral 160 mg PHLO",approximately 5 μM
"Oc1cccc(O)c1O [PYR, pyrogallol]",Effect on HSA fluorescence signal at 340 nm,[1],significant decrease
same,Kd,[1]; LogK (binding constant of albumin-ligand complex),20.9 µM
same,LogKSV (Stern-Volmer quenching constant),[1],4.64 ± 0.03
same,Concentration of warfarin in the filtrate,[12],significantly increased
same,logK of PYR-HSA complex,[4],4.5
same,Peak plasma concentration,"[7]; healthy humans, black tea extract 2650 mg, plasma not treated with sulfatase",approximately 7 μM
"Oc1cccc(O)c1 [RES, resorcinol]",inhibition at 20 μM,[11],~65%
O=c1c(-c2ccc(O)cc2)coc2cc(O)ccc12 [daidzein],Inhibition of CYP2C9-catalyzed hydroxylation of diclofenac,[9],inhibits
